Measurements reported in patent publication US5817668A, “S-heteroatom containing alkyl substituted-3-oxo-pyrido[1,2-A]benzimidozole-4-carboxamide derivatives useful in treating central nervous system disorders” (Ortho Pharmaceutical Corporation, priority 1997, dated 1998).
pIC50: −log10 of the molar value. Like-named read-outs stand apart in the source and are kept apart here.

Key:
[1] = tested on: behavior suppressed by punishment (conflict) in male rats; test: Suppression of anxiety in adult male rat (punished-licking conflict test, Vogel); format: in vivo; conditions: minimum effective dose, >10 = active dose not yet determined; for minimal effective dose: Rattus norvegicus
Protocol: Male rats were deprived of water for 48 hours and were deprived of food for 24 hours prior to testing. After the first 24 hours of water deprivation, they were placed in the conflict chamber for a training period; wherein, they were allowed 200 unpunished licks from a bottle containing tap water. The experiment was run the next day. At the expected time of peak activity, the animals were placed in the chamber and allowed access to tap water. […] Their first lick initiates a 3-min test session. Subsequently,every 20th lick was punished by a 0.2-s shock delivered via the stainless-steel drinking-tube.
The Wilcoxon rank-sum test (Mann-Whitney U-test) was used to test for an increase (p<0.05, 1-tailed) in the median number of shocks in drug-treatedgroups, compared to a concurrently run vehicle-treated group. The biological assay is considered to be valid if the effects of a known anxiolytic (positive control) are detected, within the same experiment.

[2] = tested on: metrazol-induced convulsions in male CD1 mice; test: Suppression of metrazol-induced clonic convulsions in adult male mice; format: in vivo, mouse (male CD1); conditions: Mus musculus, 0.5 h, >30 = active dose not determined
Protocol: […] Water was not withheld except during the period of observations. […] Metrazol was dissolved in 0.9% sodium chloride solution, and its dose volume was 10 ml/kg. Animals were housed individually for observation of clonic convulsions, tonic convulsions and death for a period of 30 min. […] The biological assay was considered to be valid if the effects of a known anticonvulsant (positive control) were detected, within the same experiment. Activity was reported as percent reduction of clonic convulsions from the vehicle group.

[3] = molecular target: benzodiazepine site of the GABA-A receptor; test: Benzodiazepine receptor binding: inhibition of 3H-flunitrazepam binding to prepared receptor membranes; conditions: read-out: GABAA Receptor Binding IC50; 3H-flunitrazepam ca. 3 nM, 10-20 min, 25 °C; >10,000 = not active
[4] = ip, ip, read-out: Mouse Metrazol ED50, ip
[5] = po, po, read-out: Mouse Metrazol ED50, po
[6] = ip, read-out: Rat Conflict MED, ip
[7] = po, read-out: Rat Conflict MED, po

Compound	Rat Conflict MED, po ([1]; po)	ED50 [2, 4]	ED50 [2, 5]	minimal effective dose [1, 6]	minimal effective dose [1, 7]	pIC50 [3]
COCCN1C2=C(C(=O)Nc3nccs3)C(=O)CCN2c2ccc(F)cc21 [Compound 140]	> 10 mg/kg					
CCOCCN1C2=C(C(=O)Nc3ccccc3F)C(=O)CCN2c2ccc(F)cc21 [Compound 160]		< 1 mg/kg	0.3 mg/kg	< 10 mg/kg	1 mg/kg	9.32
CN1CCCC(N2C3=C(C(=O)Nc4c(F)cccc4F)C(=O)CCN3c3ccc(F)cc32)C1 (centres unmarked) [Compound 86]		> 10 mg/kg	> 30 mg/kg	10 mg/kg	> 10 mg/kg	7.58
C[S+]([O-])CCN1C2=C(C(=O)Nc3ccccc3F)C(=O)CCN2c2ccc(F)cc21 (centres unmarked) [Compound 183, 7-Fluoro-1,2-dihydro-5-[2-(methylsulfoxy)ethyl]-3-oxo-N-(2-fluorophenyl)pyrido[1,2-a]benzimidazole-4-carboxamide]						8.21
COCCN1C2=C(C(=O)Nc3nccs3)C(=O)CCN2c2ccc(F)cc21 [Compound 155]	3 mg/kg					
CCOCN1C2=C(C(=O)Nc3ccccc3F)C(=O)CCN2c2c1ccc(F)c2F [Compound 128]		≥ 1 mg/kg	> 30 mg/kg		> 10 mg/kg	6.90
CC(=O)OCCN1C2=C(C(=O)Nc3ccccc3F)C(=O)CCN2c2ccc(F)cc21 [Compound 119, 7-Fluoro-1,2-dihydro-5-(2-acetoxyethyl)-3-oxo-N-(2-fluorophenyl)pyrido[1,2-a]benzimidazole-4-carboxamide]						9.60
COc1ccc(NC(=O)C2=C3N(CC#N)c4cc(F)ccc4N3CCC2=O)cc1 [Compound 82]		< 1 mg/kg	> 30 mg/kg		> 10 mg/kg	8.07
C#CCN1C2=C(C(=O)Nc3ccccc3F)C(=O)CCN2c2ccc(F)cc21 [Compound 85]		0.006 mg/kg	1 mg/kg	< 10 mg/kg	1 mg/kg	10.14
O=C1CCN2C(=C1C(=O)Nc1ccccc1F)N(CC(O)CO)c1cc(F)ccc12 (centres unmarked) [Compound 162, 7-Fluoro-1,2-dihydro-5-[2,3-dihydroxypropyl]-3-oxo-N-(2-fluorophenyl)pyrido[1,2-a]benzimidazole-4-carboxamide]						7.80
O=C1CCN2C(=C1C(=O)Nc1ccccc1F)N(CCNC(=O)c1ccccc1)c1cc(F)ccc12 [Compound 46]						8.21
